Results: ChEMBL document CHEMBL1671852, “In vitro activities of linezolid against clinical isolates of Mycobacterium tuberculosis complex isolated in Taiwan over 10 years” (2008)
≈ marks a conversion by molar mass, not a printed value.

Assays:
[1] = test system: Mycobacterium tuberculosis; assay: Antibacterial activity against multidrug-resistant Mycobacterium tuberculosis by agar proportion method; type: functional
[2] = test system: Mycobacterium tuberculosis; assay: Antibacterial activity against multidrug-resistant Mycobacterium tuberculosis harboring gyrA D94A mutation by agar proportion method; type: functional

In the case of CC(=O)NC[C@H]1CN(c2ccc(N3CCOCC3)c(F)c2)C(=O)O1 [LINEZOLID], the MIC50 [1] is reported as 0.5 mg/L (≈ 1.48 µM), the MIC90 [1] is reported as 0.5 mg/L (≈ 1.48 µM) and the MIC [2] is reported as 4 mg/L (≈ 11.9 µM).
